Calls of active or inactive are those of the source. The calls are words filed in the database; no cut-off is given here.
Key:
Plasmodium falciparum [1] = experiment: Antimalarial activity as 3rd generation parasitaemia against chloroquine-sensitive Plasmodium falciparum 3D7 infected human erythrocytes after 96hrs at 100 nM dosed 36-48 hrs post infection; format: functional
Plasmodium falciparum [2] = experiment: Antimalarial activity as 3rd generation parasitaemia against chloroquine-sensitive Plasmodium falciparum 3D7 infected human erythrocytes after 96hrs at 100 nM dosed 24-36 hrs post infection; format: functional
Plasmodium falciparum [3] = experiment: Antimalarial activity as arrested schizont maturation in chloroquine-sensitive Plasmodium falciparum 3D7 infected human erythrocytes after 48 hrs at 100 nM dosed 96 hrs post infection; format: functional, organism-based
Plasmodium falciparum [4] = experiment: Antimalarial activity as segregation of apicoplast in chloroquine-sensitive Plasmodium falciparum 3D7 progeny infected human erythrocytes at 100 nM dosed 96 hrs post infection; format: functional, organism-based
Plasmodium falciparum [5] = experiment: Antimalarial activity as abnormal apicoplast morphology in chloroquine-sensitive ACP1-GFP-labeled Plasmodium falciparum 3D7 trophozoite infected human erythrocytes at 2xIC50 dosed 96 hrs post infection; format: functional
Plasmodium falciparum [6] = experiment: Antimalarial activity as 2nd generation ring-stage chloroquine-sensitive Plasmodium falciparum 3D7 after 48 hrs by flow cytometry; format: functional, organism-based; conditions: 3D7, 48 h
Plasmodium falciparum [7] = experiment: Antimalarial activity as 3rd generation parasitaemia against chloroquine-sensitive Plasmodium falciparum 3D7 infected human erythrocytes after 96hrs at 100 nM dosed 12-24 hrs post infection; format: functional
Plasmodium falciparum [8] = experiment: Antimalarial activity as 3rd generation parasitaemia against chloroquine-sensitive Plasmodium falciparum 3D7 infected human erythrocytes after 96 hrs at 100 nM dosed 0-12 hrs post infection; format: functional
[9] = Tmax in human at 1000 mg, po once daily for 3 days; format: ADME, organism-based; conditions: in vivo
Plasmodium falciparum [10] = experiment: Antimalarial activity as 3rd generation parasitaemia against chloroquine-sensitive Plasmodium falciparum 3D7 infected human erythrocytes assessed after 96hrs at 100 nM dosed 12-36 hrs post infection; format: functional
[11] = Half life in human at 1000 mg, po once daily for 3 days; format: ADME, organism-based; conditions: in vivo
Plasmodium falciparum [12] = experiment: Antimalarial activity as 3rd generation parasitaemia against chloroquine-sensitive Plasmodium falciparum 3D7 infected human erythrocytes after 96 hrs at 100 nM dosed 0-48 hrs post infection; format: functional
Plasmodium falciparum [13] = experiment: Antimalarial activity as segregation of apicoplast in chloroquine-sensitive ACP1-GFP-labeled Plasmodium falciparum 3D7 schizont infected human erythrocytes at 100 nM dosed 96 hrs post infection; format: functional, organism-based
[14] = Cmax in human at 1000 mg, po once daily for 3 days; format: ADME, organism-based; parameters: dose 1000 mg, route oral; conditions: in vivo
Plasmodium falciparum [15] = experiment: Antimalarial activity as parasitaemia against chloroquine-sensitive ACP1-GFP-labeled Plasmodium falciparum 3D7 trophozoite infected human erythrocytes at 2xIC50 dosed 96 hrs post infection; format: functional
Plasmodium falciparum [16] = experiment: Antimalarial activity as 3rd generation ring-stage chloroquine-resistant Plasmodium falciparum W2 after 48 hrs dose then 48 hrs drug-free; format: functional, organism-based; conditions: W2, 48 h
Plasmodium falciparum [17] = experiment: Antimalarial activity as 3rd generation parasitaemia against chloroquine-sensitive Plasmodium falciparum 3D7 infected human erythrocytes after 96hrs at 100 nM dosed 0-24 hrs post infection; format: functional
Plasmodium falciparum [18] = experiment: Antimalarial activity as 3rd generation ring-stage chloroquine-sensitive Plasmodium falciparum 3D7 after 48 hrs dose then 48 hrs drug-free; format: functional, organism-based; conditions: 3D7, 48 h
Plasmodium falciparum [19] = experiment: Antimalarial activity as 2nd generation ring-stage chloroquine-resistant Plasmodium falciparum W2 after 48 hrs by flow cytometry; format: functional, organism-based; conditions: W2, 48 h
Plasmodium falciparum [20] = experiment: Antimalarial activity as 3rd generation parasitaemia against chloroquine-sensitive Plasmodium falciparum 3D7 infected human erythrocytes after 96hrs at 100 nM dosed 0-36 hrs post infection; format: functional
Plasmodium falciparum [21] = experiment: Antimalarial activity as 3rd generation parasitaemia against chloroquine-sensitive Plasmodium falciparum 3D7 infected human erythrocytes after 96hrs at 100 nM dosed 24-48 hrs post infection; format: functional
Plasmodium falciparum [22] = experiment: Antimalarial activity as 3rd generation parasitaemia against chloroquine-sensitive Plasmodium falciparum 3D7 infected human erythrocytes after 96hrs at 100 nM dosed 12-48 hrs post infection; format: functional
[23] = Cmax in patient with kidney disease at 300 mg, po; format: ADME, organism-based; parameters: dose 300 mg, route oral; conditions: human, in vivo
Homo sapiens = experiment: Half life in patient with kidney disease at 300 mg, po; format: ADME, organism-based; conditions: in vivo
[24] = Tmax in patient with kidney disease at 300 mg, po; format: ADME, organism-based; conditions: human, in vivo
Plasmodium falciparum [25] = experiment: Antimalarial activity as segregation of apicoplasts against chloroquine-sensitive Plasmodium falciparum 3D7 infected in human erythrocytes at 6 uM 96 hrs post infection; format: functional, organism-based
Plasmodium falciparum [26] = experiment: Antimalarial activity as 3rd generation parasitaemia against chloroquine-sensitive Plasmodium falciparum 3D7 infected human erythrocytes after 96hrs at 6 uM dosed 12-36 hrs post infection; format: functional
Plasmodium falciparum [27] = experiment: Antimalarial activity as 3rd generation parasitaemia against chloroquine-sensitive Plasmodium falciparum 3D7 infected human erythrocytes after 96hrs at 6 uM dosed 24-36 hrs post infection; format: functional
Plasmodium falciparum [28] = experiment: Antimalarial activity as 3rd generation parasitaemia against chloroquine-sensitive Plasmodium falciparum 3D7 infected human erythrocytes after 96hrs at 6 uM dosed 0-12 hrs post infection; format: functional
Plasmodium falciparum [29] = experiment: Antimalarial activity as 3rd generation parasitaemia against chloroquine-sensitive Plasmodium falciparum 3D7 infected human erythrocytes after 96hrs at 6 uM dosed 0-24 hrs post infection; format: functional
Plasmodium falciparum [30] = experiment: Antimalarial activity as 3rd generation parasitaemia against chloroquine-sensitive Plasmodium falciparum 3D7 infected human erythrocytes after 96hrs at 6 uM dosed 12-24 hrs post infection; format: functional
[31] = Tmax in patient with bronchitis at 500 mg, po twice daily for 3 days; conditions: human, in vivo
Plasmodium falciparum [32] = experiment: Antimalarial activity as 3rd generation parasitaemia against chloroquine-sensitive Plasmodium falciparum 3D7 infected human erythrocytes after 96hrs at 6 uM dosed 24-48 hrs post infection; format: functional
Plasmodium falciparum [33] = experiment: Antimalarial activity as schizont arrest after 48 hrs in chloroquine-sensitive Plasmodium falciparum 3D7 infected human erythrocytes at 6 uM 96 hrs post invasion by Giemsa staining; format: functional, organism-based
Plasmodium falciparum [34] = experiment: Antimalarial activity as segregation of apicoplasts against chloroquine-sensitive ACP1-GFP-labeled Plasmodium falciparum 3D7 schizont infected human erythrocytes at 6 uM 96 hrs post infection; format: functional, organism-based
Plasmodium falciparum [35] = experiment: Antimalarial activity as 3rd generation parasitaemia against chloroquine-sensitive Plasmodium falciparum 3D7 infected human erythrocytes after 96hrs at 6 uM dosed 12-48 hrs post infection; format: functional
Plasmodium falciparum [36] = experiment: Antimalarial activity as 3rd generation parasitaemia against chloroquine-sensitive Plasmodium falciparum 3D7 infected human erythrocytes after 96hrs at 6 uM dosed 36-48 hrs post infection; format: functional
Plasmodium falciparum [37] = experiment: Antimalarial activity as 3rd generation after 96 hrs against chloroquine-sensitive Plasmodium falciparum 3D7 infected human erythrocytes at 6 uM 0-48 hrs post invasion; format: functional
Plasmodium falciparum [38] = experiment: Antimalarial activity as 3rd generation parasitaemia against chloroquine-sensitive Plasmodium falciparum 3D7 infected human erythrocytes after 96hrs at 6 uM dosed 0-36 hrs post infection; format: functional
[39] = Cmax in patient with bronchitis at 500 mg, po twice daily for 3 days; conditions: human, in vivo
Plasmodium falciparum [40] = experiment: Antimalarial activity as 3rd generation parasitaemia after 96 hrs against chloroquine-sensitive Plasmodium falciparum 3D7 infected human erythrocytes at 25 nM 36-48 hrs post invasion; format: functional
Plasmodium falciparum [41] = experiment: Antimalarial activity as 3rd generation parasitaemia against chloroquine-sensitive Plasmodium falciparum 3D7 infected human erythrocytes after 96hrs at 25 nM dosed 12-48 hrs post infection; format: functional
Plasmodium falciparum [42] = experiment: Antimalarial activity as 3rd generation parasitaemia against chloroquine-sensitive Plasmodium falciparum 3D7 infected human erythrocytes after 96hrs at 25 nM dosed 12-24 hrs post infection; format: functional
Plasmodium falciparum [43] = experiment: Antimalarial activity as 3rd generation parasitaemia against chloroquine-sensitive Plasmodium falciparum 3D7 infected human erythrocytes after 96 hr at 25 nM dosed 24-48 hrs post infection; format: functional
Plasmodium falciparum [44] = experiment: Antimalarial activity as 3rd generation parasitaemia against chloroquine-sensitive Plasmodium falciparum 3D7 infected human erythrocytes after 96hrs at 25 nM dosed 24-36 hrs post infection; format: functional
Plasmodium falciparum [45] = experiment: Antimalarial activity as segregation of apicoplasts against chloroquine-sensitive Plasmodium falciparum 3D7 infected human erythrocytes at 25 nM 96 hrs post infection; format: functional, organism-based
Plasmodium falciparum [46] = experiment: Antimalarial activity as 3rd generation parasitaemia against chloroquine-sensitive Plasmodium falciparum 3D7 infected human erythrocytes after 96hrs at 25 nM dosed 0-36 hrs post infection; format: functional
Plasmodium falciparum [47] = experiment: Antimalarial activity as segregation of apicoplast in chloroquine-sensitive ACP1-GFP-labeled Plasmodium falciparum 3D7 schizont infected human erythrocytes at 25 nM dosed 96 hrs post infection; format: functional, organism-based
Plasmodium falciparum [48] = experiment: Antimalarial activity as arrested schizont maturation in chloroquine-sensitive Plasmodium falciparum 3D7 infected human erythrocytes after 48 hrs at 25 nM dosed 96 hrs post infection; format: functional, organism-based
Plasmodium falciparum [49] = experiment: Antimalarial activity as 3rd generation parasitaemia against chloroquine-sensitive Plasmodium falciparum 3D7 infected human erythrocytes after 96hrs at 25 nM dosed 0-24 hrs post infection; format: functional
Plasmodium falciparum [50] = experiment: Antimalarial activity as 3rd generation parasitaemia against chloroquine-sensitive Plasmodium falciparum 3D7 infected human erythrocytes after 96hrs at 25 nM dosed 0-48 hrs post infection; format: functional
Plasmodium falciparum [51] = experiment: Antimalarial activity in chloroquine-sensitive ACP1-GFP-labeled Plasmodium falciparum 3D7 after 48 hrs at 2xIC50 dosed 96 hrs post infection; format: functional, organism-based
Plasmodium falciparum [52] = experiment: Antimalarial activity as3rd generation parasitaemia against chloroquine-sensitive Plasmodium falciparum 3D7 infected human erythrocytes after 96 hrs at 25 nM dosed 12-36 hrs post infection; format: functional
Plasmodium falciparum [53] = experiment: Antimalarial activity as abnormal apicoplast morphology in chloroquine-sensitive ACP1-GFP-labeled Plasmodium falciparum 3D7 after 48 hrs at 2xIC50 dosed 96 hrs post infection; format: functional, organism-based
Plasmodium falciparum [54] = experiment: Antimalarial activity as 3rd generation parasitaemia against chloroquine-sensitive Plasmodium falciparum 3D7 infected human erythrocytes after 96hrs at 25 nM dosed 0-12 hrs post infection; format: functional

## CC[C@H]1OC(=O)[C@H](C)[C@@H](O[C@H]2C[C@@](C)(OC)[C@@H](O)[C@H](C)O2)[C@H](C)[C@@H](O[C@@H]2O[C@H](C)C[C@H](N(C)C)[C@H]2O)[C@](C)(O)C[C@@H](C)CN(C)[C@H](C)[C@@H](O)[C@]1(C)O [AZITHROMYCIN]
Plasmodium falciparum [1]
  Activity: 113%
Plasmodium falciparum [2]
  Activity: 79%
Plasmodium falciparum [3]
  Activity: inactive
Plasmodium falciparum [4]
  Activity: Active
Plasmodium falciparum [5]
  Activity: 83.4%
Plasmodium falciparum [6]
  IC50: 8670 nM
Plasmodium falciparum [7]
  Activity: 59%
Plasmodium falciparum [8]
  Activity: 91%
[9]
  Tmax: 2.4 h
Plasmodium falciparum [10]
  Activity: 28%
[11]
  half-life: 74 h
Plasmodium falciparum [12]
  Activity: 17%
Plasmodium falciparum [13]
  Activity: Active
[14]
  Cmax: 1100 nM
Plasmodium falciparum [15]
  Activity: 105%
Plasmodium falciparum [16]; read-out: IC50
  IC50: 31 nM
Plasmodium falciparum [17]
  Activity: 61%
Plasmodium falciparum [18]
  IC50: 52.7 nM
Plasmodium falciparum [19]
  IC50: 1460 nM
Plasmodium falciparum [20]
  Activity: 30%
Plasmodium falciparum [21]
  Activity: 68%
Plasmodium falciparum [22]
  Activity: 18%

## CCN(CC)CCCC(C)Nc1ccnc2cc(Cl)ccc12 (configuration not stated) [CHLOROQUINE]
[23]
  Cmax: 240 nM
Homo sapiens
  t1/2: 240 h
[24]
  Tmax: 6.6 h

## O=C(O)c1cn(C2CC2)c2cc(N3CCNCC3)c(F)cc2c1=O [CIPROFLOXACIN]
Plasmodium falciparum [25]
  Activity: Active
Plasmodium falciparum [5]
  Activity: 81.4%
Plasmodium falciparum [26]
  Activity: 23%
Plasmodium falciparum [6]
  IC50: 9440 nM
Plasmodium falciparum [27]
  Activity: 70%
Plasmodium falciparum [28]
  Activity: 80%
Plasmodium falciparum [29]
  Activity: 67%
Plasmodium falciparum [30]
  Activity: 63%
[31]
  Tmax at 72 h: 0.6 h
Plasmodium falciparum [32]
  Activity: 74%
Plasmodium falciparum [15]
  Activity: 98.6%
Plasmodium falciparum [33]
  Activity: inactive
Plasmodium falciparum [34]
  Activity: Active
Plasmodium falciparum [16]
  IC50: 1750 nM
Plasmodium falciparum [35]
  Activity: 24%
Plasmodium falciparum [18]
  IC50: 3040 nM
Plasmodium falciparum [19]
  IC50: 24900 nM
Plasmodium falciparum [36]
  Activity: 108%
Plasmodium falciparum [37]
  Activity: 13%
Plasmodium falciparum [38]
  Activity: 35%
[39]
  Cmax at 72 h: 7600 nM

## CCC[C@@H]1C[C@@H](C(=O)N[C@@H]([C@H]2O[C@H](SC)[C@H](O)[C@@H](O)[C@H]2O)[C@H](C)Cl)N(C)C1 [CLINDAMYCIN]
Plasmodium falciparum [40]
  Activity: 63%
Plasmodium falciparum [41]
  Activity: 19%
Plasmodium falciparum [5]
  Activity: 85.2%
Plasmodium falciparum [6]
  IC50: > 100000 nM
Plasmodium falciparum [42]
  Activity: 41%
Plasmodium falciparum [43]
  Activity: 78%
Plasmodium falciparum [44]
  Activity: 52%
Plasmodium falciparum [45]
  Activity: Active
Plasmodium falciparum [46]
  Activity: 21%
Plasmodium falciparum [47]
  Activity: Active
Plasmodium falciparum [48]
  Activity: inactive
Plasmodium falciparum [49]
  Activity: 49%
Plasmodium falciparum [50]
  Activity: 11%
Plasmodium falciparum [15]
  Activity: 99.3%
Plasmodium falciparum [16]; read-out: IC50
  IC50: 3.12 nM
Plasmodium falciparum [18]
  IC50: 8.81 nM
Plasmodium falciparum [51]
  Activity: Active
Plasmodium falciparum [19]
  IC50: > 100000 nM
Plasmodium falciparum [52]
  Activity: 15%
Plasmodium falciparum [53]
  Activity: Active
Plasmodium falciparum [54]
  Activity: 87%
